What was measured:
[1] = system: patients with advanced solid tumors; settings: treatment-related, worst grade per patient, all cycles, N = 67
phosphohistone H3 (pHH3) = test: Histone H3 phosphorylation in keratinocytes; assay type: in vivo, human; settings: 9 paired skin biopsies at MTD, cycle 1 day 28
[2] = system: H929 human plasmacytoma xenografts; settings: vs vehicle; cited from earlier work
[3] = system: plasma soluble VEGFR2 (sVEGFR2); test: Plasma soluble VEGFR2 ELISA; assay type: in vivo, human; settings: cycle 1, day 28 (95% CI 5,086, 6,113); baseline cycle 1 day 1 8,419 pg/mL; P < 0.001
[4] = system: MDA-MB-231 breast cancer xenograft; settings: MDA-MB-231 xenograft, with reduced tumor vascularization (CD31); cited from earlier work
[5] = Plasma pharmacokinetics in patients; assay type: in vivo, human; settings: for AUC(0-inf) / Cmax / Tmax / half-life / Vd/F: human, plasma, oral; for Vd/F: 160 mg/m2, Vd/F
[6] = day 1, 160 mg/m^2, n=8, mean ± SD
[7] = day 28, 160 mg/m^2, n=5, mean ± SD

SMILES: Cc1cc(Nc2cc(N3CCN(C)CC3)nc(/C=C/c3ccccc3)n2)n[nH]1 [ENMD-2076]
- Hypertension, grade 4, No. of patients [1]: 2
- Mucositis, any grade [1]: 15%
- Mucositis, any grade, No. of patients [1]: 10
- Mucositis, grade 3, No. of patients [1]: 0
- Mucositis, grade 4, No. of patients [1]: 0
- Nausea/vomiting, any grade, No. of patients [1]: 26
- Nausea/vomiting, grade 3, No. of patients [1]: 0
- Nausea/vomiting, grade 4, No. of patients [1]: 0
- Patients reporting related adverse events, grade 3 [1]: 28%
- Patients reporting related adverse events, grade 3, No. of patients [1]: 19
- Patients reporting related adverse events, grade 4 [1]: 9%
- Patients reporting related adverse events, grade 4, No. of patients [1]: 6
- Paired biopsies in which pHH3-positive cells decreased posttreatment (phosphohistone H3 (pHH3)): 3 samples
- Paired biopsies in which pHH3-positive cells increased (phosphohistone H3 (pHH3)): 2 samples
- Paired biopsies in which pHH3-positive cells remained the same (phosphohistone H3 (pHH3)): 4 samples
- Tumor growth [2]: Dose-dependent inhibition of tumor growth
- Mean plasma sVEGFR2 [3]: 5,600 pg/mL
- Tumor response [4]: regressions
- CL/F ([5]; day 1, 60 mg/m^2, n=6, mean ± SD): 37.9 ± 19.3 L/h
- CL/F ([5]; day 1, 80 mg/m^2, n=4, mean ± SD): 45.9 ± 13.0 L/h
- CL/F ([5]; day 1, 120 mg/m^2, n=3, mean ± SD): 64.3 ± 16.9 L/h
- CL/F [5, 6]: 52.9 ± 18.4 L/h
- CL/F ([5]; day 1, 200 mg/m^2, n=5, mean ± SD): 41.5 ± 13.3 L/h
- CL/F ([5]; day 1, 350 mg/m^2, n=2, mean ± SD): 55.2 ± 12.9 L/h
- CL/F ([5]; day 28, 60 mg/m^2, n=6, mean ± SD): 10.4 ± 7.9 L/h
- CL/F ([5]; day 28, 80 mg/m^2, n=3, mean ± SD): 10.8 ± 3.3 L/h
- CL/F ([5]; day 28, 120 mg/m^2, n=3, mean ± SD): 13.0 ± 1.4 L/h
- CL/F [5, 7]: 9.1 ± 2.9 L/h
- CL/F ([5]; day 28, 200 mg/m^2, n=4, mean ± SD): 14.0 ± 4.7 L/h
- AUC(0-inf) ([5]; 60 mg/m2, AUC(0-inf), day 1, 60 mg/m^2, n=6, mean ± SD): 3160 ± 1340 ng·h/mL
- AUC(0-inf) ([5]; 60 mg/m2, AUC(0-inf), day 28, 60 mg/m^2, n=6, mean ± SD): 15300 ± 8910 ng·h/mL
- Cmax ([5]; 60 mg/m2, Cmax, day 1, 60 mg/m^2, n=6, mean ± SD): 64 ± 23 ng/mL
- Cmax ([5]; 60 mg/m2, Cmax, day 28, 60 mg/m^2, n=6, mean ± SD): 218 ± 95 ng/mL
- Tmax ([5]; 60 mg/m2, Tmax, day 1, 60 mg/m^2, n=6, mean ± SD): 7.8 ± 7.8 h
- Tmax ([5]; 60 mg/m2, Tmax, day 28, 60 mg/m^2, n=6, mean ± SD): 4.7 ± 3 h
- half-life ([5]; 60 mg/m2, t1/2, day 1, 60 mg/m^2, n=6, mean ± SD): 36.4 ± 19.3 h
- half-life ([5]; 60 mg/m2, t1/2, day 28, 60 mg/m^2, n=6, mean ± SD): 53.1 ± 20.4 h
- AUC(0-inf) ([5]; 80 mg/m2, AUC(0-inf), day 1, 80 mg/m^2, n=4, mean ± SD): 3850 ± 1600 ng·h/mL
- AUC(0-inf) ([5]; 80 mg/m2, AUC(0-inf), day 28, 80 mg/m^2, n=3, mean ± SD): 14700 ± 3780 ng·h/mL
- Cmax ([5]; 80 mg/m2, Cmax, day 1, 80 mg/m^2, n=4, mean ± SD): 101 ± 59 ng/mL
- Cmax ([5]; 80 mg/m2, Cmax, day 28, 80 mg/m^2, n=3, mean ± SD): 233 ± 76 ng/mL
- Tmax ([5]; 80 mg/m2, Tmax, day 1, 80 mg/m^2, n=4, mean ± SD): 4 ± 1.6 h
- Tmax ([5]; 80 mg/m2, Tmax, day 28, 80 mg/m^2, n=3, mean ± SD): 3.4 ± 1.2 h
- half-life ([5]; 80 mg/m2, t1/2, day 1, 80 mg/m^2, n=4, mean ± SD): 31.8 ± 7.6 h
- half-life ([5]; 80 mg/m2, t1/2, day 28, 80 mg/m^2, n=3, mean ± SD): 51 ± 18.7 h
- AUC(0-inf) ([5]; 120 mg/m2, AUC(0-inf), day 1, 120 mg/m^2, n=3, mean ± SD): 3590 ± 1260 ng·h/mL
- AUC(0-inf) ([5]; 120 mg/m2, AUC(0-inf), day 28, 120 mg/m^2, n=3, mean ± SD): 16700 ± 1120 ng·h/mL
- Cmax ([5]; 120 mg/m2, Cmax, day 1, 120 mg/m^2, n=3, mean ± SD): 93 ± 14 ng/mL
- Cmax ([5]; 120 mg/m2, Cmax, day 28, 120 mg/m^2, n=3, mean ± SD): 314 ± 73 ng/mL
- Tmax ([5]; 120 mg/m2, Tmax, day 1, 120 mg/m^2, n=3, mean ± SD): 6 ± 3.5 h
- Tmax ([5]; 120 mg/m2, Tmax, day 28, 120 mg/m^2, n=3, mean ± SD): 2.7 ± 3.2 h
- half-life ([5]; 120 mg/m2, t1/2, day 1, 120 mg/m^2, n=3, mean ± SD): 27.3 ± 5.8 h
- half-life ([5]; 120 mg/m2, t1/2, day 28, 120 mg/m^2, n=3, mean ± SD): 44.9 ± 8.6 h
- AUC(0-inf) ([5]; 160 mg/m2, AUC(0-inf), day 1, 160 mg/m^2, n=8, mean ± SD): 5940 ± 2410 ng·h/mL
- AUC(0-inf) ([5]; 160 mg/m2, AUC(0-inf), day 28, 160 mg/m^2, n=5, mean ± SD): 34600 ± 16500 ng·h/mL
- Cmax ([5]; 160 mg/m2, Cmax, day 1, 160 mg/m^2, n=8, mean ± SD): 157 ± 52 ng/mL
- Cmax ([5]; 160 mg/m2, Cmax, day 28, 160 mg/m^2, n=5, mean ± SD): 558 ± 222 ng/mL
- Tmax ([5]; 160 mg/m2, Tmax, day 1, 160 mg/m^2, n=8, mean ± SD): 3.5 ± 1.4 h
- Tmax ([5]; 160 mg/m2, Tmax, day 28, 160 mg/m^2, n=5, mean ± SD): 4.4 ± 2.1 h
- Vd/F [5, 6]: 2020 ± 388 L
- Vd/F [5, 7]: 600 ± 229 L
- half-life ([5]; 160 mg/m2, t1/2, day 1, 160 mg/m^2, n=8, mean ± SD): 28.6 ± 8.4 h
- half-life ([5]; 160 mg/m2, t1/2, day 28, 160 mg/m^2, n=5, mean ± SD): 46.1 ± 9.5 h
- AUC(0-inf) ([5]; 200 mg/m2, AUC(0-inf), day 1, 200 mg/m^2, n=5, mean ± SD): 10600 ± 4900 ng·h/mL
- AUC(0-inf) ([5]; 200 mg/m2, AUC(0-inf), day 28, 200 mg/m^2, n=4, mean ± SD): 34500 ± 18300 ng·h/mL
- Cmax ([5]; 200 mg/m2, Cmax, day 1, 200 mg/m^2, n=5, mean ± SD): 229 ± 65 ng/mL
- Cmax ([5]; 200 mg/m2, Cmax, day 28, 200 mg/m^2, n=4, mean ± SD): 557 ± 191 ng/mL
- Tmax ([5]; 200 mg/m2, Tmax, day 1, 200 mg/m^2, n=5, mean ± SD): 4 ± 2.4 h
- Tmax ([5]; 200 mg/m2, Tmax, day 28, 200 mg/m^2, n=4, mean ± SD): 4.5 ± 2.5 h
- half-life ([5]; 200 mg/m2, t1/2, day 1, 200 mg/m^2, n=5, mean ± SD): 38.3 ± 10 h
- half-life ([5]; 200 mg/m2, t1/2, day 28, 200 mg/m^2, n=4, mean ± SD): 47.6 ± 12.7 h
- AUC(0-inf) ([5]; 350 mg/m2, AUC(0-inf), day 1, 350 mg/m^2, n=2, mean ± SD): 12200 ± 5100 ng·h/mL
- Cmax ([5]; 350 mg/m2, Cmax, day 1, 350 mg/m^2, n=2, mean ± SD): 300 ± 18 ng/mL
- Tmax ([5]; 350 mg/m2, Tmax, day 1, 350 mg/m^2, n=2, mean ± SD): 3 ± 1.4 h
- half-life ([5]; 350 mg/m2, t1/2, day 1, 350 mg/m^2, n=2, mean ± SD): 31.1 ± 14.4 h
- half-life ([5]; Mean terminal phase elimination half-life (t1/2), range, after a single dose): 27.3 to 38.3 h
- Tmax ([5]; Tmax, range over all dose levels, day 28): 2.7 to 4.7 h

Reference: paper PMC3867298 (Clinical cancer research : an official journal of the …, 2010)
